In US5587478A, “Sapphyrin multimers” (Board of Regents, The University of Texas System, priority 1995, dated 1996):
Entries after “also recorded” stand apart in the source; their conditions may differ. Where two headings read alike, the source gives them in different places.

Experiments:
[1] = diprotonated form; acidic pH; cited from earlier work
[2] = Binding constant titration in methanol; settings: for Ka: methanol, 293 K, 23 as bis HCl salt
Description: (§1) Quantitative assessments of dicarboxylate binding efficacy in methanol were made using standard spectroscopic techniques. In general, ^1 H NMR methods were employed, with the observed changes in the ^1 H NMR chemical shifts of the aromatic protons of the carboxyl-containing substrate (kept constant in the mM concentration range) being monitored as a function of increased receptor concentration. In some instances, well-resolved shifts could not be observed in the appropriate ^1 H NMR spectra. Here, either visible spectroscopic titration procedures were used or deuterated substrates were employed such that the binding process could be followed by ^2 H NMR.
(§2) More specifically, binding studies were effected by means of ^1 H NMR (General Electric QE-300), ^2 H NMR (Bruker AM-500) and Vis (Beckman DU 640) titrations and were carried out at 293 K. using methanol as the solvent. Methanol-d4 was used for the ^1 HNMR titrations and non-deuterated methanol was used for the ^2 H NMR analyses. For both sets of NMR titrations, the substrate concentration was held constant and the receptor concentration varied. The change in the chemical shifts of the aromatic hydrogen/deuterium atoms of the substrates were then followed and used as a way of monitoring, in a relative way, the concentration of the bound and unbound species. For the Vis titrations, the receptor concentration was held constant and the substrate concentration varied. There, the change in absorption of the Soret-like band of receptor 23 was followed. Receptor 23 was used in the form of its bis-HCl salt, 23-2HCl. This salt was prepared by washing a dichloromethane solution of 23 (in its free-base form) three times with independent portions of an aqueous pH 6 solution of HCl, followed by 1) drying over Na2 SO4, 2) evaporative removal of solvent and 3) drying in vacuo. Substrates were used as their trimethylammonium salts. They were prepared by dissolving the relevant dicarboxylic acid in methanol and then bubbling with trimethylamine gas for 10 min. […]

[3] = U-tube model membrane transport, 5-nitroisophthalate; settings: carrier 0.1 mM in dichloromethane; source 10 mM each of three acids, pH 7.2; receiving pH 7; 24-26 °C; error ±10%
Protocol: (§3) To illustrate the binding of dicarboxylate anions by sapphyrin dimers, transport studies were carried out utilizing a standard U-tube model membrane system. Transport experiments were performed using a glass U-tube at 24°-26° C. Conditions: Source phase: 1 mL of a 1:1:1 ratio of 4-nitrophthalic acid, 5-nitroisophthalic acid and nitroterephthalic acid (10 mM of each) at pH 7.2 (adjusted by the addition of NaOH). Membrane (6 mL); carrier (1a or 23): 0.1 mM in dichloromethane. Receiving phase: 1 mL of H2 O, pH 7.0. The release of the dicarboxylate dianions into the receiving phase was monitored as a function of time via HPLC product analysis achieved using adenosine or uridine as the internal standards. In all cases, control experiments were performed in the absence of carrier. Error is within ±10%.

[4] = Carboxylate binding, summary statements
Description: as §1
(§4) More specifically, binding studies were effected by means of ^1 H NMR (General Electric QE-300), ^2 H NMR (Bruker AM-500) and Vis (Beckman DU 640) titrations and were carried out at 293 K. using methanol as the solvent. Methanol-d4 was used for the ^1 HNMR titrations and non-deuterated methanol was used for the ^2 H NMR analyses. For both sets of NMR titrations, the substrate concentration was held constant and the receptor concentration varied. The change in the chemical shifts of the aromatic hydrogen/deuterium atoms of the substrates were then followed and used as a way of monitoring, in a relative way, the concentration of the bound and unbound species. […]

[5] = Binding constant titration in methanol
Description: as §1, §4

[6] = Binding constant titration in methanol; remark: listed apart in the source
Description: as §1, §4

[7] = Binding constant titration in methanol; settings: for Kd: methanol, 293 K, 23 as bis HCl salt, read-out: K1, K2 (converted)
Description: as §1, §2

[8] = U-tube model membrane transport, nitroterephthalate
Protocol: as §3

[9] = U-tube model membrane transport of dicarboxylates, summary; settings: neutral pH
Protocol: as §3

[10] = U-tube model membrane transport, 4-nitrophthalate; settings: carrier 0.1 mM in dichloromethane; source 10 mM each of three acids, pH 7.2; receiving pH 7; 24-26 °C; error ±10%
Protocol: as §3

[11] = Binding constant titration in methanol; remark: listed apart in the source
Description: as §1, §4

[12] = Binding constant titration in methanol; settings: for Kd: binding constant, 1H NMR, methanol, 293 K, 23 as bis HCl salt
Description: as §1, §2

[13] = Binding constant titration in methanol; remark: listed apart in the source
Description: as §1, §4

[14] = Binding constant titration in methanol; remark: listed apart in the source
Description: as §1, §4

[15] = Protonation state of sapphyrin; type: physicochemical
DNA = DNA binding of unmodified sapphyrin
[16] = relative to the worst bound substrate, oxalate
[17] = Vis spectroscopy, methanol, 293 K, 23 as bis HCl salt

For `CCC1=C(C)c2cc3[nH]c(c(C)c3CC)c3[nH]c(cc4nc(cc5[nH]c(cc1n2)c(CC)c5CC)C(CC)=C4C)c(CC)c3C` [3,8,12,13,17,22-hexaethyl-2,7,18,23-tetramethylsapphyrin], the “carrier for through-membrane transport” value [1] is listed as “efficient carrier”.
For `CCC1=C(C)c2cc3[nH]c(c(C)c3CC)c3[nH]c(cc4nc(cc5[nH]c(cc1n2)c(C)c5CCC(=O)NCCCNC(=O)CCc1c(C)c2cc5nc(cc6[nH]c(c(C)c6CC)c6[nH]c(cc7nc(cc1[nH]2)C(CC)=C7C)c(CC)c6C)C(C)=C5CC)C(CC)=C4C)c(CC)c3C` [Compound 23, 1,3-bis[12-aminocarbonylethyl-(3,8,17,22-tetraethyl-2,7,13,18,23-pentamethylsapphyrin)]propane], the Ka ([2]; Vis spectroscopy) was 2 500 M^-1, the Ka ([2]; first value, footnote printed c) was 2 400 M^-1 and the Selectivity [2, 16] was 9.4. The “Initial rate of transport kT, meta” value [3] was 2.926 10^-10 mol/cm^2 · h, the “Affinity and selectivity for carboxylates (in words)” value [4] was “little affinity for monocarboxylate-derived substrates; also recorded: very good affinities for certain dicarboxylates; also recorded: preference for linear over bent substrates and aromatic over aliphatic substrates” and the Ka [5, 17] was 260 M⁻¹. The Selectivity [5, 16] was 1, the Ka [6, 17] was 5 300 M^-1 and the Selectivity [6, 16] was 20.4. The Kd ([7]; 1H NMR) was 725 µM, the Kd ([7]; 2H NMR) was 654 µM and the Selectivity [7, 16] was 5.6. For the same molecule, the “Initial rate of transport kT, para” value ([8]; carrier 0.1 mM in dichloromethane, source 10 mM each of three acids, pH 7.2, receiving pH 7, 24-26 °C, error ±10%) was 6.803 10^-10 mol/cm^2 · h, the “Transport rate of nitroterephthalate relative to 4-nitrophthalate” value ([8]; direct competition experiments) was “three times faster” and the “Carrier efficacy for dicarboxylates” value [9] was “acts as an efficient carrier for a range of dicarboxylates”. The “Initial rate of transport kT, ortho” value [10] was 2.190 10^-10 mol/cm^2 · h, the Ka ([11]; 2H NMR, methanol, 293 K, 23 as bis HCl salt) was 4 600 M^-1 and the Selectivity [11, 16] was 17.7. For the same molecule, the Kd ([12]; read-out: K1 (converted)) was 3230 µM, the Kd ([12]; read-out: K2 (converted)) was 3570 µM and the Selectivity [12, 16] was 1.2. For the same molecule, the Ka [13, 17] was 450 M⁻¹, the Selectivity [13, 16] was 1.7 and the Ka [14, 17] was 9 100 M^-1. For the same molecule, the Selectivity [14, 16] was 35.0.
In the case of `CCc1c(CC)c2cc3nc(cc4[nH]c(c(C)c4CC)c4[nH]c(cc5nc(cc1[nH]2)C(CCC(=O)N(CCO)CCO)=C5C)c(CC)c4C)C(C)=C3CCC(=O)N(CCO)CCO` [sapphyrin], the “pH range in which sapphyrin remains monoprotonated” value [15] is reported as 3.5-10 pH, the “mode of DNA binding” value (DNA) is reported as “not intercalation or groove binding” and the Kd (DNA; unmodified sapphyrin, read-out: binding constant for DNA) is reported as ~1 µM.
